{"source": "patent US20200032249A1", "about": "“LABELING, ISOLATION, & ANALYSIS OF RNA FROM RARE CELL POPULATIONS” (priority 2017, published 2020)", "key": {"[1]": {"system": "293T cells", "assay": "anti-BrdU immunofluorescent staining of 293T cells treated with 5-FC or 5-FU", "type": "cell-based, human", "settings": "untransfected control 293T cells, 250 μM, 24 h", "description": "S. cerevisiae CD was exogenously expressed in human embryonic kidney 293T cells, and the cells were treated with 250 μM fluorocytosine (5-FC). This system is predicted to generate intracellular fluorouracil (5-FU), which is then incorporated into newly synthesized RNAs (FIG. 1a, b). Antibodies against bromodeoxyuridine (BrdU) can recognize BrdU and other halogenated uridines incorporated into nucleic acids (8).\n(§1) Human embryonic kidney transformed with […] (293T) and human breast cancer MDA-MB-231 (MDA231) cells were cultured in DMEM High Glucose medium (Wheaton) supplemented with 10% Fetal Bovine Serum (Clontech, Catalog number 631106) supplemented with 2 mM L-Glutamine. All cell lines have been routinely tested for mycoplasma contamination. For the induction of CD or CD and UPRT, cells were treated with 1 μg/ml doxycycline for 24 h. For Fluorouracil tagging, cells were treated with 250 μM of 5-FC or 5-FU unless indicated. Where indicated, 125 μM thymine was added together with 5-FC. For the formation of stress granules, cells were treated with 500 μM Sodium Arsenite (Santa Cruz Biotechnologies, Catalog number SC-301816).\nCells were fixed with 4% paraformaldehyde for 10 min, permeabilized with 0.2% TritonX-100 for 10 min, blocked with 5% BSA for one hour at room temperature, prior to incubation with primary antibodies at 4° C. overnight, and secondary antibodies (Thermo Fisher anti-chicken antibody, Catalog number A-11039, Thermo Fisher anti-rat antibody, Catalog number A-11006, Abcam anti-rat antibody, Catalog number ab150117) incubated for 1 h at room temperature. Mouse lungs were fixed in 4% paraformaldehyde overnight at 4° C., embedded in paraffin and sectioned. The lung sections were deparaffinized and stained with hematolxylin/eosin or immunostained using standard protocols. Automated image analysis was performed using the FIJI software package."}, "[2]": {"system": "MDA231 cells expressing CD/UPRT in mouse lungs", "assay": "signal-to-noise ratio of Flura-tagging and TU-tagging in vivo, lung colonization xenograft, RT-PCR", "settings": "250 mg/kg, 12 h post injection", "description": "FIG. 3 a-g. Flura-tagging of mRNA in vivo. FIG. 3a—Schematic diagram of lung colonization xenograft assay used for evaluation of Flura-tagging/Flura-seq. Athymic mice were injected through the tail vein with 50,000 MDA231 cells expressing CD/UPRT and GFP-luciferase. Upon the development of detectable bioluminescent lung metastases (4 weeks), mice were treated with doxycycline to induce CD/UPRT expression and injected with 5-FC. Lungs were harvested, and Flura-tagged mRNAs were immunopurified. FIG. 3b—Comparison of signal-to-noise ratio of Flura-tagging and TU-tagging in vivo. Mice were injected with either 5-FC or TU, the Flura-tagged or TU-tagged mRNAs were purified 12 h post injection, and the relative fold enrichment of representative human housekeeping genes relative to representative murine housekeeping genes (mHPRT1, mLDH1, mPGK1 and mGAPDH), normalized to their corresponding unpurified inputs, were measured by RT-PCR (n=5, ±S.E.). FIG. 3c—Quantification of the number of human cells in the mouse lungs used for Flura-tagging. Half of the mouse lungs used for Flura-tagging in FIG. 3b was dissociated into single cells, and the number of RFP+ cells was quantified using flow cytometry. The total number of MDA231 cells per lung was estimated based on an assumption of 1.5×10^8 cells per mouse lung (20) (n=5). […] RNA reads were aligned to a hybrid genome containing the human and mouse genomes. […]"}, "[3]": {"system": "MDA231 cells", "assay": "stress granule formation by G3BP immunostaining", "type": "cell-based", "settings": "500 μM sodium arsenite, positive control", "description": "FIG. 2a-b. Flura-tagging has minimal cytotoxicity. FIG. 2a—Effect of Flura-tagging on stress granule formation. MDA231 cells were treated with 5-FC for the indicated times, and the formation of stress granules was detected by G3BP immunostaining. Control cells were either treated with water or sodium arsenite (Arsenite) for one hour. Arrows indicate stress granules (n=3). Scale bar=20 μM. FIG. 2b—Effect of Flura-tagging on transcription. RNA expression in control cells was compared to CD/UPRT-expressing cells treated with the indicated concentrations of 5-FC for 4 h or 12 h. Each dot represents a gene, with the outer/lighter gray dots indicating genes showing more than 2-fold differential expression, as determined by DESeq2 (n=2). The dotted line represents the four-fold cutoff mark.\n5-FU is extensively used as a chemotherapeutic agent for the treatment of solid tumors, based on its ability to induce cancer cell death by inhibiting thymidylate synthase and by causing DNA and RNA damage (12-14). It was therefore crucial to test whether our 5-FU-tagging method, which is based on low concentrations of 5-FC and short incubation time periods, has significant cytotoxic effects under our experimental conditions. CD/UPRT-expressing cells were treated with 5-FC at concentrations of up to 250 μM for up to 12 h (“Flura-tagged” cells), and the effects of this treatment on RNA damage response and transcriptional regulation were investigated.\nA key feature of the RNA damage response is the formation of stress granules (15). Ras GTPase-activating protein-binding protein 1 (G3BP), a key component of stress granules, forms distinct foci during stress granule formation (12). We determined the dose- and time-dependent effect of 5-FC treatment on stress granule formation by immunostaining of the cells with anti-G3BP antibody. […] The 5-FC-treated cells started to form stress granules only after 24 h of treatment with 1 mM 5-FC, a concentration four times higher than the maximal concentration of 5-FC used for Flura-tagging, or after 48 h of 5-FC treatment at lower concentrations (FIG. 2a).\nas §1, with “For the formation of stress granules, cells were treated with 500 μM Sodium Arsenite (Santa Cruz Biotechnologies, Catalog number SC-301816).” left out"}}, "data": [{"molecule": "O=c1[nH]cc(F)c(=O)[nH]1", "note": "[5-FU, 5-fluoro-uracil]", "values": [{"measurement": "immunostaining with anti-BrdU antibody", "setting": "[1]", "value": "positive immunostaining"}]}, {"molecule": "O=c1cc[nH]c(=S)[nH]1", "note": "[thiouracil]", "values": [{"measurement": "enrichment of human mRNAs compared to mouse mRNAs", "setting": "[2]", "value": "approximately 10 fold"}]}, {"molecule": "O=[As]O", "note": "[sodium arsenite]", "values": [{"measurement": "time to formation of distinct G3BP foci", "setting": "[3]", "value": "≤ 1", "unit": "h"}]}]}
